Our source for the IC50 values is patent publication US20110212968A1, “PHENETHYLAMIDE DERIVATIVES AND THEIR HETEROCYCLIC ANALOGUES” (priority 2008, published 2011).

Assay [1] has as its target T1, human orexin-1 receptor (Homo sapiens, UniProt O43613).
T1 construct: expressed in transfected cells; host or cells: CHO (Chinese hamster ovary) cells, kept under G418 selection
T1 sequence (O43613 1-425): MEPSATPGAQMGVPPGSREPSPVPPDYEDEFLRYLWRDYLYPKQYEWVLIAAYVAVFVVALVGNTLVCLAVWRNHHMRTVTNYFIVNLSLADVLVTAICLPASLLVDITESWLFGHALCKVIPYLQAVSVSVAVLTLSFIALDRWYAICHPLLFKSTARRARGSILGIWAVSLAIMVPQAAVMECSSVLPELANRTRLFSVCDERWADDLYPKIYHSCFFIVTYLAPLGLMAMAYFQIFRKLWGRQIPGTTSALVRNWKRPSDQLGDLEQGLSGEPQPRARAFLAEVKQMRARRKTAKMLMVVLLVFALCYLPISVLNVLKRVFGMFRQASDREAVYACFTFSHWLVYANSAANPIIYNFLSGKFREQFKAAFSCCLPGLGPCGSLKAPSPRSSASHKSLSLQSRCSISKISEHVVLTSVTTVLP
As to the kind of experiment: Intracellular calcium measurement (FLIPR Tetra), orexin receptor antagonistic activity, OX1. The class given is cell-based. To be noted: CHO cells expressing human orexin-1 receptor, 3 nM orexin-A, conditions B. As to the method: (§1) The orexin receptor antagonistic activity of the compounds of formula (I) is determined in accordance with one of the following experimental methods.
(§2) Chinese hamster ovary (CHO) cells expressing the human orexin-1 receptor and the human orexin-2 receptor, respectively, are grown in culture medium (Ham F-12 with L-Glutamine) containing 300 μg/ml G418, 100 U/ml penicillin, 100 μg/ml streptomycin and 10% heat inactivated fetal calf serum (FCS). The cells are seeded at 20,000 cells/well into 384-well black clear bottom sterile plates (Greiner). The seeded plates are incubated overnight at 37° C. in 5% CO2.
(§3) Human orexin-A as an agonist is prepared as 1 mM stock solution in MeOH:water (1:1), diluted in HBSS containing 0.1% bovine serum albumin (BSA), NaHCO3: 0.375 g/l and 20 mM HEPES for use in the assay at a final concentration of 3 nM. Antagonists are prepared as 10 mM stock solution in DMSO, then diluted in 384-well plates, first in DMSO, then in HBSS containing 0.1% bovine serum albumin (BSA), NaHCO3: 0.375 g/l and 20 mM HEPES.
(§4) On the day of the assay, 50 μl of staining buffer (HBSS containing 1% FCS, 20 mM HEPES, NaHCO3: 0.375 g/l, 5 mM probenecid (Sigma) and 3 μM of the fluorescent calcium indicator fluo-4 AM (1 mM stock solution in DMSO, containing 10% pluronic) is added to each well.
(§5) The 384-well cell-plates are incubated for 50 min at 37° C. in 5% CO2 followed by equilibration at RT for 30-120 min before measurement.
(§6) Within the Fluorescent Imaging Plate Reader (FLIPR Tetra, Molecular Devices), antagonists are added to the plate in a volume of 10 μl/well, incubated for 10 min and finally 10 μl/well of agonist is added. Fluorescence is measured for each well at 1 second intervals, and the height of each fluorescence peak is compared to the height of the fluorescence peak induced by 3 nM orexin-A with vehicle in place of antagonist. For each antagonist, the IC50 value (the concentration of compound needed to inhibit 50% of the agonistic response) is determined and may be normalized using the obtained IC50 value of a on-plate reference compound (normalized values in Table 1 are indicated by an asterisk *). With the FLIPR Tetra, two different conditions (conditions A and conditions B) were used, differing in adjustment of pipetting speed and cell splitting regime. The calculated IC50 values of the compounds may fluctuate depending on the daily cellular assay performance. Fluctuations of this kind are known to those skilled in the art.
(A change in cytosolic calcium serves as a functional read-out for many receptors and channels.)

Assay [2] concerns the target T2, human orexin-2 receptor (Homo sapiens, UniProt O43614).
T2 construct: expressed in transfected cells; host or cells: CHO (Chinese hamster ovary) cells, kept under G418 selection
T2 sequence (O43614 1-444): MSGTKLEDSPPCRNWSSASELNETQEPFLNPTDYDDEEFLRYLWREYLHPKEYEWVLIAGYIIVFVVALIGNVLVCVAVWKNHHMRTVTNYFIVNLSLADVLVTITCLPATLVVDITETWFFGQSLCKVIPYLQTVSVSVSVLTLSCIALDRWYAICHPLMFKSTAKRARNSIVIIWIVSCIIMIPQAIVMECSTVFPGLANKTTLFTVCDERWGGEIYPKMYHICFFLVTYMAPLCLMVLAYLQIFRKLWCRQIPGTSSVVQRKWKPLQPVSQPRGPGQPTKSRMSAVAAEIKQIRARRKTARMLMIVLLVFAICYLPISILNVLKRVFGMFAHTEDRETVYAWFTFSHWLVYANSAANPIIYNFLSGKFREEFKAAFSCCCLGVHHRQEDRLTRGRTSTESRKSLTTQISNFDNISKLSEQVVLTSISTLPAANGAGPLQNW
As to the kind of experiment: Intracellular calcium measurement (FLIPR Tetra), orexin receptor antagonistic activity, OX2. The class given is cell-based. To be noted: CHO cells expressing human orexin-2 receptor, 3 nM orexin-A, conditions B. As for the experimental part: as §1, §2, §3, §4, §5, §6

Where [3] appears, read: normalized (*) using IC50 of on-plate reference compound.

The structures appear in SMILES notation.

As usually defined, the IC50 is the concentration at which inhibition is half-maximal. Consider `Cc1cccc(-c2sc(N)nc2C(=O)N(CCc2ccc3c(c2)OC(F)(F)O3)CC2CC2)c1` [Example 157, 2-Amino-5-m-tolyl-thiazole-4-carboxylic acid cyclopropylmethyl-[2-(2,2-difluoro-benzo[1,3]dioxol-5-yl)-ethyl]-amide], for which the figures for the IC50 in assay [1] and in assay [2] were 8510 nM and 745 nM, respectively.
Taken in the same sequence, the figures for `COc1ccc(CCN(CC2CC2)C(=O)c2nc(N)sc2-c2cccc(C)c2)cc1SC` [Example 161, 2-Amino-5-m-tolyl-thiazole-4-carboxylic acid cyclopropylmethyl-[2-(4-methoxy-3-methylsulfanyl-phenyl)-ethyl]-amide] were 10 nM and 6 nM.
Taken in the same sequence, the figures for `COc1ccc(CCN(CC2CC2)C(=O)c2nc(N)sc2-c2cccc(C)c2)cc1Br` [Example 163, 2-Amino-5-m-tolyl-thiazole-4-carboxylic acid [2-(3-bromo-4-methoxy-phenyl)-ethyl]-cyclopropylmethyl-amide] were 81 nM and 18 nM.
For the compound `COc1ccc(CCN(CC2CC2)C(=O)c2nc(N)sc2-c2cccc(C)c2)cc1OC(F)F` [Example 165, 2-Amino-5-m-tolyl-thiazole-4-carboxylic acid cyclopropylmethyl-[2-(3-difluoromethoxy-4-methoxy-phenyl)-ethyl]-amide], the IC50 worked out at 35 nM in assay [1] (setting [3]) and 18 nM in assay [2] (setting [3]).
For `Cc1cccc(-c2sc(N)nc2C(=O)N(CCc2ccc3ccccc3c2)CC2CC2)c1` [Example 167, 2-Amino-5-m-tolyl-thiazole-4-carboxylic acid cyclopropylmethyl-(2-naphthalen-2-yl-ethyl)-amide], the results for the IC50 in assay [1] and in assay [2] were 171 nM and 45 nM, respectively.
Taken in the same sequence, the figures for `CCC(Cc1ccc(OC)c(OC)c1)N(CC1CC1)C(=O)c1nc(N)sc1-c1cccc(C)c1` (centres unmarked) [Example 169, 2-Amino-5-m-tolyl-thiazole-4-carboxylic acid cyclopropylmethyl-[1-(3,4-dimethoxy-benzyl)-propyl]-amide] were 25 nM and 27 nM.
For `COc1cc(CCN(CC2CC2)C(=O)c2nc(N)sc2-c2cccc(C)c2)cc(OC)c1OC(C)C` [Example 173, 2-Amino-5-m-tolyl-thiazole-4-carboxylic acid cyclopropylmethyl-[2-(4-isopropoxy-3,5-dimethoxy-phenyl)-ethyl]-amide], in that order: 147 nM and 12 nM.
For `Cc1cccc(-c2sc(N)nc2C(=O)N(CCc2csc(N)n2)CC2CC2)c1` [Example 177, 2-Amino-5-m-tolyl-thiazole-4-carboxylic acid [2-(2-amino-thiazol-4-yl)-ethyl]-cyclopropylmethyl-amide], in that order: over 10000 nM and 954 nM.
For the compound `CCc1nc(I)cn1CCN(CC1CC1)C(=O)c1nc(N)sc1-c1cccc(C)c1` [Example 178, 2-Amino-5-m-tolyl-thiazole-4-carboxylic acid cyclopropylmethyl-[2-(2-ethyl-4-iodo-imidazol-1-yl)-ethyl]-amide], the results for the IC50 in assay [1] and in assay [2] were 739 nM and 943 nM, respectively.
As for `Cc1nc(C(=O)N(CCc2ccccc2Cl)CC2CC2)c(-c2ccc(C)c(C)c2)s1` [Example 180, 5-(3,4-Dimethyl-phenyl)-2-methyl-thiazole-4-carboxylic acid [2-(2-chloro-phenyl)-ethyl]-cyclopropylmethyl-amide], the IC50 amounted to 4360 nM in assay [1] and 240 nM in assay [2].
Consider `Cc1nc(C(=O)N(CCc2ccc(C(F)(F)F)cc2)CC2CC2)c(-c2ccc(C)c(C)c2)s1` [Example 192, 5-(3,4-Dimethyl-phenyl)-2-methyl-thiazole-4-carboxylic acid cyclopropylmethyl-[2-(4-trifluoromethyl-phenyl)-ethyl]-amide], for which the IC50 is over 10000 nM in assay [1] and 719 nM in assay [2].
For `Cc1nc(C(=O)N(CCc2ccc3c(c2)OCCO3)CC2CC2)c(-c2ccc(C)c(C)c2)s1` [Example 198, 5-(3,4-Dimethyl-phenyl)-2-methyl-thiazole-4-carboxylic acid cyclopropylmethyl-[2-(2,3-dihydro-benzo[1,4]dioxin-6-yl)-ethyl]-amide], in that order: 1070 nM and 65 nM.
For `CCOc1ccc(CCN(CC2CC2)C(=O)c2nc(C)sc2-c2ccc(C)c(C)c2)cc1OC` [Example 199, 5-(3,4-Dimethyl-phenyl)-2-methyl-thiazole-4-carboxylic acid cyclopropylmethyl-[2-(4-ethoxy-3-methoxy-phenyl)-ethyl]-amide], in that order: 404 nM and 9 nM.
With `COc1ccc(CCN(CC2CC2)C(=O)c2nc(C)sc2-c2ccc(C)c(C)c2)cc1SC` [Example 201, 5-(3,4-Dimethyl-phenyl)-2-methyl-thiazole-4-carboxylic acid cyclopropylmethyl-[2-(4-methoxy-3-methylsulfanyl-phenyl)-ethyl]-amide], the IC50 worked out at 21 nM in assay [1] and 15 nM in assay [2].
Taken in the same sequence, the figures for `COc1ccc(CCN(CC2CC2)C(=O)c2nc(C)sc2-c2ccc(C)c(C)c2)cc1C` [Example 202, 5-(3,4-Dimethyl-phenyl)-2-methyl-thiazole-4-carboxylic acid cyclopropylmethyl-[2-(4-methoxy-3-methyl-phenyl)-ethyl]-amide] were 447 nM and 22 nM.
Regarding `COc1cc(CCN(CC2CC2)C(=O)c2nc(C)sc2-c2ccc(C)c(C)c2)ccc1O` [Example 207, 5-(3,4-Dimethyl-phenyl)-2-methyl-thiazole-4-carboxylic acid cyclopropylmethyl-[2-(4-hydroxy-3-methoxy-phenyl)-ethyl]-amide], the IC50 in assay [1] was 538 nM; in assay [2] it was 12 nM.
For `COc1cc(CCN(CC2CC2)C(=O)c2nc(C)sc2-c2ccc(C)c(C)c2)c(OC)cc1I` [Example 213, 5-(3,4-Dimethyl-phenyl)-2-methyl-thiazole-4-carboxylic acid cyclopropylmethyl-[2-(4-iodo-2,5-dimethoxy-phenyl)-ethyl]-amide], in that order: 157 nM and 153 nM.
For `Cc1cccc(-c2sc(N)nc2C(=O)N(CCc2nc3ccc(Cl)cc3[nH]2)CC2CC2)c1` [Example 220, 2-Amino-5-m-tolyl-thiazole-4-carboxylic acid [2-(6-chloro-1H-benzoimidazol-2-yl)-ethyl]-cyclopropylmethyl-amide], in that order: 139 nM and 31 nM.
In the case of `Cc1cccc(-c2sc(N)nc2C(=O)N(CCn2ccc3ccccc32)CC2CC2)c1` [Example 221, 2-Amino-5-m-tolyl-thiazole-4-carboxylic acid cyclopropylmethyl-(2-indol-1-yl-ethyl)-amide], the IC50 in assay [1] worked out at 243 nM; in assay [2] it was 201 nM.
